Bounds are passed on as bounds.

For this assay, the target named is T1, α4β7 (adhesion of RPMI cells to CS-1) (Homo sapiens, UniProt P13612+P26010).
T1 construct: endogenous in cells
T1 sequence (P13612 34-1032): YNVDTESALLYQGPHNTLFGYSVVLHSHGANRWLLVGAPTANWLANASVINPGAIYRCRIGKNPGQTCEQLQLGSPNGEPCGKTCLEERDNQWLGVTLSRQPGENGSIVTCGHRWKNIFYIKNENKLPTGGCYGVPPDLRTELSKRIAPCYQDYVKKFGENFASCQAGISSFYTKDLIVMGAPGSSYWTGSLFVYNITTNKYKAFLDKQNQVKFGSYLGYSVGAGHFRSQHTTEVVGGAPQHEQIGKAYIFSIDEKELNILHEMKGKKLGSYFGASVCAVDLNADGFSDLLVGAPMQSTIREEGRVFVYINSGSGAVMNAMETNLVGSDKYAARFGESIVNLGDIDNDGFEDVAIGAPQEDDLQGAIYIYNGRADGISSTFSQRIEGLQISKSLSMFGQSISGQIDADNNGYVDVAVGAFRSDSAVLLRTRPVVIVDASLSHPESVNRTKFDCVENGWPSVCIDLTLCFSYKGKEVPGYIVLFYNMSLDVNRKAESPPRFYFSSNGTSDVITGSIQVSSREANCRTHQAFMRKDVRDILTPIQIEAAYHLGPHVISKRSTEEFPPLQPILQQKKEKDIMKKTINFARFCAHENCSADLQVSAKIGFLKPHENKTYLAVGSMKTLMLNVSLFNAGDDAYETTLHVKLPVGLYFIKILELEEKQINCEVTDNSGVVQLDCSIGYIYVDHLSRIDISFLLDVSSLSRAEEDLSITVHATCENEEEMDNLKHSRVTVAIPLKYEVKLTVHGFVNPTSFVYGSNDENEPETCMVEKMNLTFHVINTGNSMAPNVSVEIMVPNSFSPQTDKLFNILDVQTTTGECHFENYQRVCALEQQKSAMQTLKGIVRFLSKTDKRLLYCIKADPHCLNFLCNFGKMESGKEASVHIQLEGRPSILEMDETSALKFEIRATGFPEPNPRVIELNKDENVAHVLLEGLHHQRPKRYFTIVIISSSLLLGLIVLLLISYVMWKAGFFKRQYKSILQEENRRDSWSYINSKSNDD
T1 sequence (P26010 20-798): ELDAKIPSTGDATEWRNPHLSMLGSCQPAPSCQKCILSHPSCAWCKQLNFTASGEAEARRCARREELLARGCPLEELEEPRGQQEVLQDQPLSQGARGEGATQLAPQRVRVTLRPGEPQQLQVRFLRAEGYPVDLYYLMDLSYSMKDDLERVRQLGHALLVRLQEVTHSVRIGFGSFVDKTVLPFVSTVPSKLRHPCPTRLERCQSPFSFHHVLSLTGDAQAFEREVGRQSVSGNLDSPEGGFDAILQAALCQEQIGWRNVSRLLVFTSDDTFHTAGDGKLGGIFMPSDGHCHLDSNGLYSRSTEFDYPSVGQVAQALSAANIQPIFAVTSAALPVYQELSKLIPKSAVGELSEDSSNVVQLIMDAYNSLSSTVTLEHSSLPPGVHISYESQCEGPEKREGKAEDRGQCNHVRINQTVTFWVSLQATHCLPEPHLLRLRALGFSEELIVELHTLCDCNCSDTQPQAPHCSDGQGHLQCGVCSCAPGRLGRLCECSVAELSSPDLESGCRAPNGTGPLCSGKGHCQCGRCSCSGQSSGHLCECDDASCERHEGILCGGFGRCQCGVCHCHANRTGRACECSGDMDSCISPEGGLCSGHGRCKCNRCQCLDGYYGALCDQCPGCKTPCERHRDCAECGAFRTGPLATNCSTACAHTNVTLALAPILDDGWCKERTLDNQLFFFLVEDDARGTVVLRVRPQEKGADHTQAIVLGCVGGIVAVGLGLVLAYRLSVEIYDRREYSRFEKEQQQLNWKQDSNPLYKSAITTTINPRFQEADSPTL
Briefly: RPMI-CS-1 cell adhesion assay. It counts as cell-based. Conditions: adhesion of RPMI B-cell line (expresses α4β7) to CS-1 peptide coated microwells; read-out: RPMI-CS-1 IC50 value range. As for the experimental part:
RPMI-CS-1 Cell Adhesion Assay:
The test compounds were added in increasing concentrations to RPMI cells and then the cell-compound mixture was added to CS-1 coated microwells. The plates were incubated, washed and the percentage of attached cells were quantitated.
The CS-1 derived peptide, […], and the scrambled control peptide, […], were synthesized at Tanabe Research Laboratories, USA, Inc. on a Beckman 990 synthesizer using t-Boc methodology. […] Microtiter plates were coated with 20 μg/ml human serum albumin (HSA) for 2 hours at room temperature, washed once with PBS and derivatized with 10 μg/ml SPDP for 1 hour. […] Unbound peptide was removed from the plates by washing with PBS. To block non-reacted sites, the plates were coated with 100 μl of a 2.5 mg/ml BSA solution in PBS for one hour at 37° C. 100 μl of RPMI cells (2.5×10^6 cells/ml) in Dulbecco's Modified Eagles Medium (DMEM) plus 0.25% ovalbumin were added to peptide coated dishes and incubated for 1 hour at 37° C. […] To do this, the enzyme substrate p-nitrophenyl-N-acetyl-β-D-glucoseaminide is dissolved at 7.5 mM in 0.1 M citrate buffer pH 5 and then mixed with an equal volume of 0.5% Triton X100. 50 μl of the substrate solution was added to the plates and the plates were incubated at 37° C. for 60 minutes.
In this assay, IC50 value ranges (μM) are depicted by A, B, C and D. These ranges as follows. D>5≧C>1≧B>0.3≧A
With `COc1ccccc1-c1ccc(C[C@H](NC(=O)c2c(Cl)cccc2Cl)C(=O)O)cc1NC(C)=O` [Example 80], the IC50 was < 300 nM.
In the case of `COc1ccccc1-c1ccc(C[C@H](NC(=O)[C@H](C)c2ccccc2)C(=O)O)cc1` [Example 78], the concentration for half-maximal inhibition (IC50) lay in the range of 300 to 1000 nM.
For `COc1cc(CN2CCN(CCO)CC2)cc(OC)c1-c1ccc(C[C@H](NC(=O)c2c(Cl)cccc2Cl)C(=O)O)cc1` [Example 250], the IC50 was < 300 nM.
Consider `CC(C)Oc1cccc(-c2ccc(C[C@H](NC(=O)c3c(Cl)cccc3Cl)C(=O)O)cc2)c1` [Example 224, N-(2,6-Dichlorobenzoyl)-4-(3-i-propoxyphenyl)-L-phenylalanine], for which the IC50 was in the range of 1000 to 5000 nM.
Turning to `O=C(N[C@@H](Cc1ccc(-c2ccsc2CO)cc1)C(=O)O)c1c(Cl)cccc1Cl` [Example 218, N-(2,6-Dichlorobenzoyl)-4-(2-hydroxymethyl-3-thienyl)-L-phenylalanine], the IC50 was in the range of 1000 to 5000 nM.
On to `COc1cccc(OC)c1-c1ccc(C[C@H](NC(=O)c2c(F)cccc2F)C(=O)O)cc1` [Example 3, N-(2,6-Difluorobenzoyl)-4-(2,6-dimethoxyphenyl)-L-phenylalanine], for which the 50% inhibitory concentration (IC50) is < 300 nM.
The same measure for `COc1cccc(OC)c1-c1ccc(C[C@H](NC(=O)c2c(Cl)cc(-c3ccccn3)cc2Cl)C(=O)O)cc1` [Example 312]: < 300 nM.
As for `COc1cccc(N(C)C)c1-c1ccc(C[C@H](NC(=O)c2c(Cl)cccc2Cl)C(=O)O)cc1` [Example 29, N-(2,6-Dichlorobenzoyl)-4-[2-(N,N-dimethylamino)-6-methoxyphenyl]-L-phenylalanine], the figure is 1000 to 5000 nM; as for `COc1cccc(OC)c1-c1ccc(C[C@H](NC(=O)c2c(Cl)cccc2Cl)C(=O)OC2CCCCC2)cc1` [Example 276, N-(2,6-Dichlorobenzoyl)-4-(2,6-dimethoxyphenyl)-L-phenylalanine cyclohexyl ester], > 5000 nM; as for `COc1ccccc1-c1ccc(C[C@H](NC(=O)c2ccc(NS(=O)(=O)c3ccccc3)cc2Cl)C(=O)O)cc1` [Example 68, N-[2-Chloro-4-(benzenesulfonylamino)benzoyl]-4-(2-methoxyphenyl)-L-phenylalanine], < 300 nM.
As for `Cc1ccccc1-c1ccc(C[C@H](NC(=O)c2c(Cl)cccc2Cl)C(=O)O)cc1` [Example 112], the figure is 300 to 1000 nM.
For `CCCCOc1ccccc1-c1ccc(C[C@H](NC(=O)c2c(Cl)cccc2Cl)C(=O)O)cc1` [Example 34], the IC50 was in the range of 1000 to 5000 nM.
As to `O=C(N[C@@H](Cc1ccc(-c2ccccc2)cc1)C(=O)O)c1ccc(F)cc1Cl` [Example 109], the IC50 is > 5000 nM.
In the case of `COc1ccc(-c2ccc(C[C@H](NC(=O)c3c(Cl)cccc3Cl)C(=O)O)cc2)cc1` [Example 118], the 50% inhibitory concentration (IC50) lay in the range of 1000 to 5000 nM.
Turning to `COc1cc(N(C)C)cc(OC)c1-c1ccc(C[C@H](NC(=O)c2c(Cl)cccc2Cl)C(=O)O)cc1` [Example 164, N-(2,6-Dichlorobenzoyl)-4-[2,6-dimethoxy-4-(dimethylamino)phenyl]-L-phenylalanine], the IC50 is < 300 nM.
As for `COc1ccccc1-c1ccc(C[C@H](NC(=O)c2ccc(NS(=O)(=O)C(F)(F)F)cc2Cl)C(=O)O)cc1` [Example 65, N-[2-Chloro-4-(trifluoromethanesulfonylamino)benzoyl]-4-(2-methoxyphenyl)-L-phenylalanine], the figure is < 300 nM.
Take `COc1cccc(O)c1-c1ccc(C[C@H](NC(=O)c2c(Cl)cccc2Cl)C(=O)O)cc1` [Example 31, N-(2,6-Dichlorobenzoyl)-4-(2-hydroxy-6-methoxyphenyl)-L-phenylalanine]: the IC50 is < 300 nM.
Take `CN1CCCC1CCOc1ccccc1-c1ccc(C[C@H](NC(=O)c2c(Cl)cccc2Cl)C(=O)O)cc1` (some centres unmarked) [Example 43]: the half-inhibitory concentration (IC50) was 1000 to 5000 nM.
Take `COC(=O)[C@H](Cc1ccc(-c2ccccc2CNCc2ccccc2)cc1)NC(=O)c1c(Cl)cccc1Cl` [Example 114]: the half-inhibitory concentration (IC50) is 300 to 1000 nM.
`O=C(N[C@@H](Cc1ccc(-c2ccccn2)cc1)C(=O)O)c1c(Cl)cccc1Cl` [Example 137]: the IC50 fell in the range of 300 to 1000 nM.
